# Laboratory results taken from patent publication US8883841B2, “Oncogenic ras-specific cytotoxic compound and methods of use thereof” (The Board of Regents of the University of Texas System, priority 2005, dated 2014).
# “Also recorded” adds a separate entry of the source. Where two headings read alike, the source gives them in different places.
# How the values were obtained:
# [1] = tested on: H226B cells; test: Cell viability, H226B lung cancer cells; type: cell-based, human; conditions: for IC50 (−LogM): H226B, Lung
# [2] = tested on: A549 cells; test: Cell viability, A549 lung cancer cells; type: cell-based, human
# [3] = tested on: A549CK8; test: Cell viability, A549CK8 lung cancer cells; type: cell-based, human
# [4] = tested on: Hct116; test: Cell viability, Hct116 colon cancer cells; type: cell-based, human
# [5] = tested on: CT116P53; test: Cell viability, CT116P53 colon cancer cells; type: cell-based, human
# [6] = tested on: HKE3; test: Cell viability, HKE3 colon cancer cells; type: cell-based, human; conditions: for IC50 (−LogM): HKE3, Colon; for IC50: Homo sapiens
# [7] = tested on: H1299 cells; test: Cell viability, H1299 lung cancer cells; type: cell-based, human
# [8] = tested on: AsPC-1; test: Cell viability, AsPC-1 pancreatic cancer cells; type: cell-based, human
# [9] = tested on: DLD1; test: Cell viability, DLD1 colon cancer cells; type: cell-based, human
# [10] = tested on: Heb46; test: Cell viability, Heb46 kidney cells; type: cell-based
# [11] = tested on: Heb44; test: Cell viability, Heb44 kidney cells; type: cell-based
# [12] = tested on: Capanc-1; test: Cell viability, Capanc-1 pancreatic cancer cells; type: cell-based, human
# [13] = tested on: miapac; test: Cell viability, miapac pancreatic cancer cells; type: cell-based, human
# [14] = tested on: H2122; test: Cell viability, H2122 lung cancer cells; type: cell-based, human
# [15] = tested on: H2009; test: Cell viability, H2009 lung cancer cells; type: cell-based, human
# [16] = tested on: H1933; test: Cell viability, H1933 lung cancer cells; type: cell-based, human
# [17] = tested on: H1395; test: Cell viability, H1395 lung cancer cells; type: cell-based, human
# [18] = tested on: Ovcar3; test: Cell viability, Ovcar3 ovary cancer cells; type: cell-based
# [19] = tested on: Ovca429; test: Cell viability, Ovca429 ovary cancer cells; type: cell-based
# [20] = tested on: U251; test: NCI in-vitro testing, U251 (CNS Cancer)
# [21] = tested on: CCRF-CEM; test: NCI in-vitro testing, CCRF-CEM (Leukemia)
# [22] = tested on: SF-295; test: NCI in-vitro testing, SF-295 (CNS Cancer)
# [23] = tested on: SK-MEL-28; test: NCI in-vitro testing, SK-MEL-28 (Melanoma)
# [24] = tested on: SN12C; test: NCI in-vitro testing, SN12C (Renal Cancer)
# [25] = tested on: T-47D; test: NCI in-vitro testing, T-47D (Breast Cancer)
# [26] = tested on: MDA-MB-435; test: NCI in-vitro testing, MDA-MB-435 (Breast Cancer)
# [27] = tested on: NCI-H522; test: NCI in-vitro testing, NCI-H522 (Non-Small Cell Lung Cancer)
# [28] = Homo sapiens, read-out: IC50 (−LogM) (converted)
compound,measurement,setting,value
"O=Cc1cn(Cc2ccc(Cl)cc2)c2ccccc12 [Oncrasin K001, 1H-Indole-3-carboxaldehyde, 1-[(4-chlorophenyl)methyl]-(9CI)]",IC50 (−LogM),[1]; first H226B line,7 −LogM
same,IC50 (−LogM),[1]; second H226B line,5.6 −LogM
same,IC50,"[1]; Ras status not known, read-out: IC50, H226B cells",1.2 µM
same,effect on H226b cells,[1]; ras status unknown,effective
same,IC50 (−LogM),"[2]; A549, Lung",>4.5 −LogM
same,IC50,"[2]; K-Ras G12S, read-out: IC50, A549 cells",1.58 µM
same,IC50 (−LogM),"[3]; A549CK8, Lung",5.8 −LogM
same,IC50,"[4]; G13D mutation in K-Ras, read-out: IC50, HCT116",3.1 µM
same,IC50 (−LogM),"[4]; Hct116, Colon",5.5 −LogM
same,IC50 (−LogM),"[5]; CT116P53, Colon",>4.5 −LogM
same,IC50 (−LogM),[6]; first HKE3 line,6.4 −LogM
same,IC50 (−LogM),[6]; second HKE3 line,6 −LogM
same,IC50 (−LogM),"[7]; h1299, Lung",>4.5 −LogM
same,effect on H1299 cells,"[7]; mutant N-Ras, listed as Oncrasin-1",minimal effect; also recorded: not effective
same,IC50 (−LogM),"[8]; ASPC1, Pancrease",5.5 −LogM
same,IC50,"[8]; K-Ras G12D mutation, read-out: IC50, AsPC-1",0.04 µM
same,IC50 (−LogM),"[9]; DLD1, Colon",>4.5 −LogM
same,IC50 (−LogM),[10],6.1 −LogM
same,IC50 (−LogM),[11],8 −LogM
same,IC50,"[12]; K-Ras G12V mutation, read-out: IC50, Capanc-1",0.42 µM
same,IC50 (−LogM),"[12]; capanc1, Pancrease",5 −LogM
same,IC50 (−LogM),"[13]; miapac, Pancrease",>4.5 −LogM
same,IC50 (−LogM),"[14]; H2122, Lung",6.1 −LogM
same,IC50,"[14]; K-Ras G12C, read-out: IC50, H2122",0.79 µM
same,effect on H212 cells,"[14]; lung cancer cell line, G12C",highly effective
same,IC50 (−LogM),"[15]; H2009, Lung",>4.5 −LogM
same,IC50 (−LogM),"[16]; H1933, Lung",>4.5 −LogM
same,IC50 (−LogM),"[17]; H1395, Lung",>4.5 −LogM
same,effect on H1395 cells,[17]; wild-type Ras,minimal effect
same,IC50 (−LogM),[18],5.6 −LogM
same,IC50 (−LogM),[19],4.5 −LogM
"O=Cc1cn(Cc2cccc(Cl)c2)c2ccccc12 [Oncrasin K027, 1-(3-chlorobenzyl)-1H-indole-3-carbaldehyde]",IC50,"[1]; Homo sapiens, read-out: IC50 (−LogM), H226B, Lung, first H226B line (converted)",0.316 µM
same,IC50,"[1]; Homo sapiens, read-out: IC50 (−LogM), H226B, Lung, second H226B line (converted)",3.98 µM
same,IC50,"[2]; Homo sapiens, A549, read-out: IC50 (−LogM), A549, Lung (converted)",10 µM
same,IC50,[3]; [28],15.8 µM
same,IC50,"[4]; Homo sapiens, HCT-116, read-out: IC50 (−LogM), Hct116, Colon (converted)",3.98 µM
same,IC50,[5]; [28],< 31.6 µM
same,IC50,"[6]; read-out: IC50 (−LogM), HKE3, Colon, first HKE3 line (converted)",1 µM
same,IC50,"[6]; read-out: IC50 (−LogM), HKE3, Colon, second HKE3 line (converted)",1.26 µM
same,IC50,"[7]; Homo sapiens, NCI-H1299, read-out: IC50 (−LogM), h1299, Lung (converted)",15.8 µM
same,IC50,"[8]; Homo sapiens, ASPC1, read-out: IC50 (−LogM), ASPC1, Pancrease (converted)",15.8 µM
same,IC50,"[9]; Homo sapiens, DLD-1, read-out: IC50 (−LogM) (converted)",< 31.6 µM
same,IC50,[10],2 µM
same,IC50,[11],0.0631 µM
same,IC50,"[12]; Homo sapiens, Pancreatic cancer cell, read-out: IC50 (−LogM), capanc1, Pancrease (converted)",31.6 µM
same,IC50,"[13]; Homo sapiens, Pancreatic cancer cell, read-out: IC50 (−LogM) (converted)",< 31.6 µM
same,IC50,"[14]; Homo sapiens, NCI-H2122, read-out: IC50 (−LogM) (converted)",0.631 µM
same,IC50,"[15]; Homo sapiens, NCI-H2009, read-out: IC50 (−LogM) (converted)",< 31.6 µM
same,IC50,[16]; [28],< 31.6 µM
same,IC50,"[17]; Homo sapiens, NCI-H1395, read-out: IC50 (−LogM) (converted)",< 31.6 µM
same,IC50,"[18]; Homo sapiens, OVCAR-3",3.16 µM
same,GI50,"[20]; Homo sapiens, U-251",2.46 µM
same,CC50,"[20]; Homo sapiens, U-251, read-out: LC50",> 100 µM
same,TGI,[20]; U251,2.53E−5 Molar
same,Percent Growth,"[20]; U251, Log10 Concentration −4.0 Molar",−35%
same,Percent Growth,"[20]; U251, Log10 Concentration −5.0 Molar",25%
same,Percent Growth,"[20]; U251, Log10 Concentration −6.0 Molar",56%
same,Percent Growth,"[20]; U251, Log10 Concentration −7.0 Molar",84%
same,Percent Growth,"[20]; U251, Log10 Concentration −8.0 Molar",93%
same,GI50,[21]; Homo sapiens,1.74 µM
same,CC50,"[21]; Homo sapiens, read-out: LC50",14.8 µM
same,Percent Growth,[21]; Log10 Concentration −4.0 Molar,−67%
same,Percent Growth,[21]; Log10 Concentration −5.0 Molar,−47%
same,Percent Growth,[21]; Log10 Concentration −6.0 Molar,87%
same,Percent Growth,[21]; Log10 Concentration −7.0 Molar,97%
same,Percent Growth,[21]; Log10 Concentration −8.0 Molar,100%
same,GI50,"[22]; Homo sapiens, SF-295",1.43 µM
same,CC50,"[22]; Homo sapiens, SF-295, read-out: LC50",> 100 µM
same,TGI,[22]; SF-295,3.52E−5 Molar
same,Percent Growth,"[22]; SF-295, Log10 Concentration −4.0 Molar",−15%
same,Percent Growth,"[22]; SF-295, Log10 Concentration −5.0 Molar",18%
same,Percent Growth,"[22]; SF-295, Log10 Concentration −6.0 Molar",56%
same,Percent Growth,"[22]; SF-295, Log10 Concentration −7.0 Molar",80%
same,Percent Growth,"[22]; SF-295, Log10 Concentration −8.0 Molar",104%
same,GI50,"[23]; Homo sapiens, SK-MEL-28",18 µM
same,CC50,"[23]; Homo sapiens, SK-MEL-28, read-out: LC50",> 100 µM
same,TGI,[23]; SK-MEL-28,4.44E−6 Molar
same,Percent Growth,"[23]; SK-MEL-28, Log10 Concentration −4.0 Molar",−45%
same,Percent Growth,"[23]; SK-MEL-28, Log10 Concentration −5.0 Molar",82%
same,Percent Growth,"[23]; SK-MEL-28, Log10 Concentration −6.0 Molar",93%
same,Percent Growth,"[23]; SK-MEL-28, Log10 Concentration −7.0 Molar",93%
same,Percent Growth,"[23]; SK-MEL-28, Log10 Concentration −8.0 Molar",83%
same,TGI,[24],1.94E−5 Molar
same,GI50,[24]; Homo sapiens,3.56 µM
same,CC50,"[24]; Homo sapiens, read-out: LC50",67.2 µM
same,Percent Growth,[24]; Log10 Concentration −4.0 Molar,−66%
same,Percent Growth,[24]; Log10 Concentration −5.0 Molar,27%
same,Percent Growth,[24]; Log10 Concentration −6.0 Molar,79%
same,Percent Growth,[24]; Log10 Concentration −7.0 Molar,93%
same,Percent Growth,[24]; Log10 Concentration −8.0 Molar,97%
same,GI50,"[25]; Homo sapiens, T47D",0.0267 µM
same,CC50,"[25]; Homo sapiens, T47D, read-out: LC50",> 100 µM
same,TGI,[25]; T-47D,4.23E−7 Molar
same,Percent Growth,"[25]; T-47D, Log10 Concentration −4.0 Molar",−14%
same,Percent Growth,"[25]; T-47D, Log10 Concentration −5.0 Molar",−16%
same,Percent Growth,"[25]; T-47D, Log10 Concentration −6.0 Molar",−12%
same,Percent Growth,"[25]; T-47D, Log10 Concentration −7.0 Molar",20%
same,Percent Growth,"[25]; T-47D, Log10 Concentration −8.0 Molar",73%
same,GI50,"[26]; Homo sapiens, MDA-MB-435",1.93 µM
same,CC50,"[26]; Homo sapiens, MDA-MB-435, read-out: LC50",> 100 µM
same,TGI,[26]; MDA-MB-435,5.47E−5 Molar
same,Percent Growth,"[26]; MDA-MB-435, Log10 Concentration −4.0 Molar",−29%
same,Percent Growth,"[26]; MDA-MB-435, Log10 Concentration −5.0 Molar",81%
same,Percent Growth,"[26]; MDA-MB-435, Log10 Concentration −6.0 Molar",96%
same,Percent Growth,"[26]; MDA-MB-435, Log10 Concentration −7.0 Molar",100%
same,Percent Growth,"[26]; MDA-MB-435, Log10 Concentration −8.0 Molar",102%
same,TGI,[27],1.24E−5 Molar
same,GI50,"[27]; Homo sapiens, NCI-H522",2.41 µM
same,CC50,"[27]; Homo sapiens, NCI-H522, read-out: LC50",51 µM
same,Percent Growth,[27]; Log10 Concentration −4.0 Molar,−74%
same,Percent Growth,[27]; Log10 Concentration −5.0 Molar,7%
same,Percent Growth,[27]; Log10 Concentration −6.0 Molar,76%
same,Percent Growth,[27]; Log10 Concentration −7.0 Molar,82%
same,Percent Growth,[27]; Log10 Concentration −8.0 Molar,91%
